Patent US10781184B2, “Substituted benzazinones as antibacterial compounds” (GlaxoSmithKline Intellectual Property Development Limited, priority 2015, dated 2020)
Values after ≈ are worked out from the molar mass of the structure shown.

Assays:
Experiment in all cases: Minimum Inhibitory Concentration Assay (broth microdilution, CLSI)
Assay type in all cases: cell-based
[1] = tested on: K. pneumoniae 1161486; conditions: Klebsiella pneumoniae; strain 1161486, broth microdilution; read-out: K. pneumoniae 1161486 MIC
Experimental: (§1) Methods for dilution Antimicrobial Susceptibility TestS for Bacteria that Grow Aerobically; Approved Standard-Ninth Edition; M7-A9, Vol. 32 No. 2, Clinical and Laboratory Standards Institute, Wayne, Pa.; January 2012.
(§2) Performance Standards for Antimicrobial Susceptibility Testing; Twenty-Second Informational Supplement; M100-S22 Vol. 32 No. 3; Clinical and Laboratory Standards Institute, Wayne, Pa., January 2012.
(§3) Broth microdilution was performed in accordance with the CLSI recommended procedures for aerobic bacteria [CLSI, 2012].
(§4) Comparator compound stock solutions were prepared as recommended by CLSI [CLSI, 2012]. The stock solutions of novel GSK compounds were prepared at 512 mcg/mL by dissolving the compounds in dimethyl sulfoxide (DMSO) and diluting 1:10 with sterile water. The 512 mcg/mL stock was further serially diluted in the recommended broth media for the organisms being tested. Final DMSO concentration in test wells was less than 1%.
(§5) Microtitre plates were prepared using the Microlab STAR™ (Hamilton Co., Reno, Nev.) to add media (50 μL) and the Microlab AT Plus system (Hamilton Co., Reno, Nev.) to serially dilute the compounds (final concentration range 0.125 to 128 mcg/mL) and to add inoculum. A positive growth control well containing medium and the test isolate was included on each microtitre plate. Ten microliters of the test medium from the positive growth control well was plated to determine the purity of each test isolate. A microtitre mirror reader (Cooke Instruments, Ltd., England) was used to assist in determining the microdilution MIC endpoints. The MIC was determined as the lowest concentration of compound that inhibited visible growth of the organism.

[2] = tested on: P. aeruginosa PA01; conditions: Pseudomonas aeruginosa; strain PA01, broth microdilution; read-out: P. aeruginosa PA01 MIC
Experimental: as §1, §2, §3, §4, §5

[3] = tested on: E. coli 7623; conditions: Escherichia coli; strain 7623, broth microdilution; read-out: E. coli 7623 MIC
Experimental: as §1, §2, §3, §4, §5

MIC [1] [µg/mL] | MIC [2] [µg/mL] | MIC [3] [µg/mL] | SMILES
0.5 (≈ 0.987 µM) | 2 (≈ 3.95 µM) | 0.125 (≈ 0.247 µM) | CCONCc1ccc(-c2ccc3c(=O)n(CC[C@](C)(C(=O)NO)S(C)(=O)=O)cnc3c2)c(F)c1 [Example 51, (2R)-4-(7-{4-[(ethoxyamino)methyl]-2-fluorophenyl}-4-oxo-3,4-dihydroquinazolin-3-yl)-N-hydroxy-2-methanesulfonyl-2-methylbutanamide]
0.25 (≈ 0.512 µM) | 8 (≈ 16.4 µM) | 0.063 (≈ 0.129 µM) | CON(C)Cc1ccc(-c2ccc3c(=O)n(CC[C@](C)(C(=O)NO)S(C)(=O)=O)cnc3c2)cc1 [Example 52, (2R)—N-hydroxy-2-methanesulfonyl-4-[7-(4-{[methoxy(methyl)amino]methyl}phenyl)-4-oxo-3,4-dihydroquinazolin-3-yl]-2-methylbutanamide]
0.25 (≈ 0.562 µM) | 0.5 (≈ 1.12 µM) | < 0.03 | COc1ccc(-c2ccc3c(=O)n(CC[C@](C)(C(=O)NO)S(C)(=O)=O)ccc3c2)cc1 [Example 53, (2R)—N-hydroxy-2-methanesulfonyl-4-[6-(4-methoxyphenyl)-1-oxo-1,2-dihydroisoquinolin-2-yl]-2-methylbutanamide]
0.5 (≈ 1.17 µM) | 1 (≈ 2.33 µM) | < 0.03 | Cc1ccc(-c2ccc3c(=O)n(CC[C@](C)(C(=O)NO)S(C)(=O)=O)ccc3c2)cc1 [Example 54, (2R)—N-hydroxy-2-methanesulfonyl-2-methyl-4-[6-(4-methylphenyl)-1-oxo-1,2-dihydroisoquinolin-2-yl]butanamide]
0.063 (≈ 0.136 µM) | 1 (≈ 2.16 µM) | < 0.03 | COc1ccc(-c2ccc3c(=O)n(CC[C@](C)(C(=O)NO)S(C)(=O)=O)ccc3c2)c(F)c1 [Example 55, (2R)-4-[6-(2-fluoro-4-methoxyphenyl)-1-oxo-1,2-dihydroisoquinolin-2-yl]-N-hydroxy-2-methanesulfonyl-2-methylbutanamide]
0.125 (≈ 0.302 µM) | 0.5 (≈ 1.21 µM) | 0.063 (≈ 0.152 µM) | C[C@@](CCn1ccc2cc(-c3ccccc3)ccc2c1=O)(C(=O)NO)S(C)(=O)=O [Example 56, (2R)—N-hydroxy-2-methanesulfonyl-2-methyl-4-(1-oxo-6-phenyl-1,2-dihydroisoquinolin-2-yl)butanamide]
0.25 (≈ 0.548 µM) | 2 (≈ 4.38 µM) | 0.063 (≈ 0.138 µM) | C[C@@](CCn1ccc2cc(-c3ccc4c(c3)COC4)ccc2c1=O)(C(=O)NO)S(C)(=O)=O [Example 57, (2R)-4-[6-(1,3-dihydro-2-benzofuran-5-yl)-1-oxo-1,2-dihydroisoquinolin-2-yl]-N-hydroxy-2-methanesulfonyl-2-methylbutanamide]
1 (≈ 2.3 µM) | 4 (≈ 9.18 µM) | 0.063 (≈ 0.145 µM) | Cc1cnc(-c2ccc3c(=O)n(CC[C@](C)(C(=O)NO)S(C)(=O)=O)ccc3c2)s1 [Example 58, (2R)—N-hydroxy-2-methanesulfonyl-2-methyl-4-[6-(5-methyl-1,3-thiazol-2-yl)-1-oxo-1,2-dihydroisoquinolin-2-yl]butanamide]
0.125 (≈ 0.273 µM) | 0.5 (≈ 1.09 µM) | 0.063 (≈ 0.138 µM) | C[C@@](CCn1ccc2cc(-c3ccc(C#N)cc3F)ccc2c1=O)(C(=O)NO)S(C)(=O)=O [Example 59, (2R)-4-[6-(4-cyano-2-fluorophenyl)-1-oxo-1,2-dihydroisoquinolin-2-yl]-N-hydroxy-2-methanesulfonyl-2-methylbutanamide]
0.5 | 0.5 | < 0.03 | COc1ccc(-c2ccc3c(=O)n(CC[C@](C)(C(=O)NO)S(C)(=O)=O)ccc3c2)cn1.Cl [Example 60, (2R)—N-hydroxy-2-methanesulfonyl-4-[6-(6-methoxypyridin-3-yl)-1-oxo-1,2-dihydroisoquinolin-2-yl]-2-methylbutanamide]
1 (≈ 2.19 µM) | > 32 | < 0.03 | CN(C)c1ccc(-c2ccc3c(=O)n(CC[C@](C)(C(=O)NO)S(C)(=O)=O)ccc3c2)cc1 [Example 61, (2R)-4-{6-[4-(dimethylamino)phenyl]-1-oxo-1,2-dihydroisoquinolin-2-yl}-N-hydroxy-2-methanesulfonyl-2-methylbutanamide]
0.5 (≈ 1.09 µM) | 8 (≈ 17.4 µM) | 0.125 (≈ 0.273 µM) | CN(C)c1ccc(-c2ccc3c(=O)n(CC[C@](C)(C(=O)NO)S(C)(=O)=O)ccc3c2)cn1 [Example 62, (2R)-4-{6-[6-(dimethylamino)pyridin-3-yl]-1-oxo-1,2-dihydroisoquinolin-2-yl}-N-hydroxy-2-methanesulfonyl-2-methylbutanamide]
1 (≈ 2.18 µM) | 4 (≈ 8.7 µM) | 0.125 (≈ 0.272 µM) | CN(C)c1ncc(-c2ccc3c(=O)n(CC[C@](C)(C(=O)NO)S(C)(=O)=O)ccc3c2)cn1 [Example 63, (2R)-4-{6-[2-(dimethylamino)pyrimidin-5-yl]-1-oxo-1,2-dihydroisoquinolin-2-yl}-N-hydroxy-2-methanesulfonyl-2-methylbutanamide]
0.5 (≈ 1.02 µM) | 4 (≈ 8.17 µM) | 0.25 (≈ 0.511 µM) | CN(C)Cc1ccc(-c2ccc3c(=O)n(CC[C@](C)(C(=O)NO)S(C)(=O)=O)ccc3c2)c(F)c1 [Example 65, (2R)-4-(6-{4-[(dimethylamino)methyl]-2-fluorophenyl}-1-oxo-1,2-dihydroisoquinolin-2-yl)-N-hydroxy-2-methanesulfonyl-2-methylbutanamide]
0.125 (≈ 0.234 µM) | 1 (≈ 1.87 µM) | 0.063 (≈ 0.118 µM) | COCCN(C)Cc1ccc(-c2ccc3c(=O)n(CC[C@](C)(C(=O)NO)S(C)(=O)=O)ccc3c2)c(F)c1 [Example 66, (2R)-4-[6-(2-fluoro-4-{[(2-methoxyethyl)(methyl)amino]methyl}phenyl)-1-oxo-1,2-dihydroisoquinolin-2-yl]-N-hydroxy-2-methanesulfonyl-2-methylbutanamide]
1 (≈ 1.92 µM) | 1 (≈ 1.92 µM) | 0.125 (≈ 0.241 µM) | COCCNCc1ccc(-c2ccc3c(=O)n(CC[C@](C)(C(=O)NO)S(C)(=O)=O)ccc3c2)c(F)c1 [Example 67, (2R)-4-[6-(2-fluoro-4-{[(2-methoxyethyl)amino]methyl}phenyl)-1-oxo-1,2-dihydroisoquinolin-2-yl]-N-hydroxy-2-methanesulfonyl-2-methylbutanamide]
0.25 | 2 | 0.125 | COCCCN(C)Cc1ccc(-c2ccc3c(=O)n(CC[C@](C)(C(=O)NO)S(C)(=O)=O)ccc3c2)c(F)c1.Cl [Example 70, (2R)-4-[6-(2-fluoro-4-{[(3-methoxypropyl)(methyl)amino]methyl}phenyl)-1-oxo-1,2-dihydroisoquinolin-2-yl]-N-hydroxy-2-methanesulfonyl-2-methylbutanamide]
0.5 (≈ 0.93 µM) | 0.5 (≈ 0.93 µM) | 0.063 (≈ 0.117 µM) | COCCNCc1ccc(-c2ccc3c(=O)n(CC[C@](C)(C(=O)NO)S(C)(=O)=O)ccc3c2)c(F)c1F [Example 71, (R)-4-(6-(2,3-difluoro-4-(((2-methoxyethyl)amino)methyl)phenyl)-1-oxoisoquinolin-2(1H)-yl)-N-hydroxy-2-methyl-2-(methylsulfonyl)butanamide]
0.5 | 2 | 0.25 | CC(C)OCCNCc1ccc(-c2ccc3c(=O)n(CC[C@](C)(C(=O)NO)S(C)(=O)=O)ccc3c2)c(F)c1.Cl [Example 73, (2R)-4-{6-[2-fluoro-4-({[2-(propan-2-yloxy)ethyl]amino}methyl)phenyl]-1-oxo-1,2-dihydroisoquinolin-2-yl}-N-hydroxy-2-methanesulfonyl-2-methylbutanamide]
0.5 | 1 | 0.25 | CN(CCO)Cc1ccc(-c2ccc3c(=O)n(CC[C@](C)(C(=O)NO)S(C)(=O)=O)ccc3c2)c(F)c1.O=C(O)C(F)(F)F [Example 74, (2R)-4-[6-(2-fluoro-4-{[(2-hydroxyethyl)(methyl)amino]methyl}phenyl)-1-oxo-1,2-dihydroisoquinolin-2-yl]-N-hydroxy-2-methanesulfonyl-2-methylbutanamide]
0.125 (≈ 0.249 µM) | 0.5 (≈ 0.997 µM) | < 0.03 | C[C@@](CCn1ccc2cc(-c3ccc(CNC4CC4)cc3F)ccc2c1=O)(C(=O)NO)S(C)(=O)=O [Example 76, (2R)-4-(6-{4-[(cyclopropylamino)methyl]-2-fluorophenyl}-1-oxo-1,2-dihydroisoquinolin-2-yl)-N-hydroxy-2-methanesulfonyl-2-methylbutanamide]
0.25 (≈ 0.499 µM) | 2 (≈ 4 µM) | 0.125 (≈ 0.25 µM) | CN(C)N(C)Cc1ccc(-c2ccc3c(=O)n(CC[C@](C)(C(=O)NO)S(C)(=O)=O)ccc3c2)cc1 [Example 77, (2R)—N-hydroxy-2-methanesulfonyl-2-methyl-4-(1-oxo-6-{4-[(1,2,2-trimethylhydrazin-1-yl)methyl]phenyl}-1,2-dihydroisoquinolin-2-yl)butanamide]
0.125 (≈ 0.264 µM) | 4 (≈ 8.45 µM) | 0.063 (≈ 0.133 µM) | CONCc1ccc(-c2ccc3c(=O)n(CC[C@](C)(C(=O)NO)S(C)(=O)=O)ccc3c2)cc1 [Example 78, (2R)—N-hydroxy-2-methanesulfonyl-4-(6-{4-[(methoxyamino)methyl]phenyl}-1-oxo-1,2-dihydroisoquinolin-2-yl)-2-methylbutanamide]
